Test results from PubChem BioAssay (NCI).
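Values below derive from 48-hour exposures of cells grown in 96-well plates, with endpoints linearly interpolated between the two concentrations bracketing the appropriate inhibition level. GI50 is the concentration that inhibits growth by half. TGI: concentration producing complete growth inhibition.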

Tests used:
Assay in all cases: DTP human tumour cell line panel, 48 h
[1] = test system: SN12C renal
[2] = test system: ACHN renal
[3] = test system: MOLT-4 leukemia
[4] = test system: A549 NSCLC
[5] = test system: TK-10 renal
[6] = test system: HOP-92 NSCLC
[7] = test system: EKVX NSCLC
[8] = test system: UACC-62 melanoma
[9] = test system: CCRF-CEM leukemia
[10] = test system: OVCAR-4 ovarian
[11] = test system: NCI/ADR-RES ovarian
[12] = test system: BT-549 breast

Compound	TGI [1] [µM]	TGI [2] [µM]	TGI [3] [µM]	TGI [4] [µM]	TGI [5] [µM]	TGI [6] [µM]	TGI [7] [µM]	TGI [8] [µM]	TGI [9] [µM]	TGI [10] [µM]	TGI [11] [µM]	TGI [12] [µM]	GI50 [11] [µM]	GI50 [3] [µM]	GI50 [12] [µM]	GI50 [6] [µM]	GI50 [8] [µM]	GI50 [9] [µM]	GI50 [10] [µM]
N#Cc1nc(C(=O)c2ccccc2)oc1N	> 100	> 100	> 100	> 100	> 100	> 100	> 100	> 100	> 100	> 100	–	–	–	–	–	–	–	–	–
COC1OC2COC(c3ccccc3)OC2C(OC(=S)c2ccccc2)C1O (stereo not drawn)	> 100	> 100	> 100	33.7	> 100	> 100	5.82	> 100	> 100	> 100	79	> 100	–	–	–	–	–	–	–
N#CC(NNC(=O)c1c(Cl)c(Cl)c(Cl)c(Cl)c1-c1nc2ccc(C(=O)c3ccccc3)cc2[nH]1)c1cccc(Oc2ccccc2)c1 (stereo not drawn)	67.2	88.8	> 100	> 100	95.1	48.3	37.6	–	29	> 100	57.1	64.8	–	–	–	–	–	–	–
H-KIFKKFKTIIKKVWRIFGRF-NH2	–	–	> 100	–	–	4.67	–	4.92	> 100	5.4	9.57	> 100	2.95	3.13	3.54	2	2.03	2.53	2.13
O=C(Nc1ccccc1C(=O)O)C(=Cc1ccccc1O)NC(=O)c1ccccc1	> 100	> 100	> 100	> 100	–	> 100	> 100	> 100	> 100	–	> 100	> 100	–	–	–	–	–	–	–
CC1[C@@H]2C[C@@H]3O[C@@]34[C@H]3CCC5Cc6nc7c(nc6C[C@@]5(C)C3(O)CC(=O)[C@@]24CO[C@]12OC(C)(C)CC2O)CC1CC[C@@H]2C3=C[C@H]4O[C@@]5(O[C@@](C)(CO)C[C@@H]5O)C(C)[C@@]4(O)[C@]3(C)[C@@H](O)CC2[C@]1(C)C7 (stereo partly drawn)	> 3.52	–	–	1.16	–	0.976	1.03	0.104	0.0413	> 3.52	> 3.52	–	–	–	–	–	–	–	–
CC(=O)c1c2c(cc3c1CCC3)CCC2	> 100	> 100	> 100	> 100	> 100	–	> 100	> 100	> 100	> 100	> 100	> 100	–	–	–	–	–	–	–
COc1ccc(C(OCC2OC(n3ccc(Oc4c(F)c(F)c(F)c(F)c4F)nc3=O)CC2OP(OCCC#N)N(C(C)C)C(C)C)(c2ccccc2)c2ccc(OC)cc2)cc1 (stereo not drawn)	> 100	> 100	> 100	> 100	> 100	> 100	–	> 100	> 100	–	> 100	> 100	–	–	–	–	–	–	–
NC(=O)c1nnc2c(F)cccc2c1N	> 100	> 100	> 100	> 100	> 100	–	> 100	> 100	> 100	> 100	> 100	> 100	–	–	–	–	–	–	–
O=C1CSC2=NC3=C(COC/C3=C\c3ccc(F)cc3)C(c3ccc(F)cc3)N12 (stereo not drawn)	> 100	> 100	> 100	–	> 100	> 100	> 100	> 100	74.5	> 100	> 100	> 100	–	–	–	–	–	–	–
CC1C/C(=C\c2ccc(O)c(O)c2)C(=O)/C(=C/c2ccc(O)c(O)c2)C1 (stereo not drawn)	20.4	21.6	20.3	32.8	> 100	18.7	30.1	13.6	7.2	34.1	57.7	–	–	–	–	–	–	–	–
CCCCCC(=O)OCC1(CO)C/C(=C/CC(C(C)C)C(C)C)C(=O)O1 (stereo not drawn)	> 75	> 75	–	> 75	> 75	> 75	> 75	> 75	68.7	> 75	> 75	> 75	–	–	–	–	–	–	–
COC1OC(=O)C(OC)C(OC)C1OC (stereo not drawn)	> 100	> 100	> 100	> 100	> 100	> 100	> 100	> 100	–	> 100	> 100	> 100	–	–	–	–	–	–	–
CC1CN=C(N(C(=O)Nc2ccccc2)C2CCCCC2)S1 (stereo not drawn)	31.2	26.3	38.8	34.2	37	–	35.4	–	53.7	30.2	33.3	–	–	–	–	–	–	–	–
Cc1cc(S(=O)(=O)Nc2n[nH]c(N)n2)c(S)cc1Cl	> 10	> 10	> 10	> 10	> 10	–	> 10	> 10	> 10	> 10	> 10	> 10	–	–	–	–	–	–	–
Cc1cc(N)c2cc(NC(=O)CCCCCCCCC(=O)Nc3ccc4nc(C)cc(N)c4c3)ccc2n1	26.6	> 100	> 39.8	> 31.6	> 100	80.3	> 89	> 100	> 61.3	> 100	–	–	–	–	–	–	–	–	–
CCOC(=O)c1sc2[n+](c1C)C(=O)/C(=C/c1ccccc1Cl)S2	> 100	40	15	> 56.8	57	–	> 100	19.3	> 72.8	> 100	16.1	–	–	–	–	–	–	–	–
C/C(=N\Nc1nc2ccccc2n1C)c1ccncn1	> 100	30.9	> 100	> 32	> 100	2.64	> 47.7	–	> 52.6	> 100	0.458	> 100	–	–	–	–	–	–	–
CC(=O)c1nc(C#N)c(N)o1	> 100	> 100	> 100	> 100	> 100	> 100	> 100	> 100	> 100	> 100	> 100	–	–	–	–	–	–	–	–
CC(NC1=NCCO1)c1ccco1 (stereo not drawn)	> 100	> 100	> 100	> 100	> 100	> 100	> 100	> 100	> 100	> 100	> 100	–	–	–	–	–	–	–	–
O=C(c1cccs1)N(C(=O)N1CCCCC1)c1ccccc1	> 100	> 100	> 100	–	> 100	–	> 100	> 100	> 100	–	> 100	> 100	–	–	–	–	–	–	–

Compound	TGI [1] [µM]	TGI [2] [µM]	TGI [3] [µM]	TGI [4] [µM]	TGI [5] [µM]	TGI [6] [µM]	TGI [7] [µM]	TGI [8] [µM]	TGI [9] [µM]	TGI [10] [µM]	TGI [11] [µM]	TGI [12] [µM]	GI50 [11] [µM]	GI50 [3] [µM]	GI50 [12] [µM]	GI50 [6] [µM]	GI50 [8] [µM]	GI50 [9] [µM]	GI50 [10] [µM]
N#Cc1c(NC(=S)Nc2ccccc2)sc2c1CCCC2	> 100	> 100	> 100	–	> 100	–	> 100	> 100	–	> 100	> 100	> 100	–	–	–	–	–	–	–
COc1cc(C)c(S(=O)(=O)N(CCCN)OCCCN)c(C)c1C	> 100	> 100	31.4	> 100	> 100	–	> 100	> 100	> 100	> 100	> 100	66.5	–	–	–	–	–	–	–
COc1ccc(C2=C(N)c3cc(OC)ccc3C2=O)cc1	> 100	> 100	> 100	> 100	–	> 100	> 100	> 100	–	> 100	> 100	> 100	–	–	–	–	–	–	–
Nc1nn2cc(-c3ccccc3)[n+](CC(=O)c3ccccc3)c2s1	> 100	> 100	51.2	> 100	> 100	35.4	> 100	> 100	54.6	–	> 100	40.5	–	–	–	–	–	–	–
CC1CC/C(=C\c2ccc(F)cc2)C2=C1C(c1ccc(F)cc1)NC(=S)N2 (stereo not drawn)	> 100	> 100	> 100	–	> 100	–	79.3	> 100	> 100	–	> 100	> 100	–	–	–	–	–	–	–
O=C(CSCC(=O)N/N=C\c1cccc(Br)c1)N/N=C\c1cccc(Br)c1	35.2	26.4	73	31.5	24.8	47	63.7	29.4	–	69.9	34.1	48.2	–	–	–	–	–	–	–
CN(C)CCSc1nccc(-c2ccc(-c3ccnc(SCCN(C)C)n3)s2)n1	21	–	10	31.7	–	28.1	37.4	29.7	17.4	16.2	19.9	–	–	–	–	–	–	–	–
O=S1(=O)OCCOS(=O)(=O)C1S(=O)(=O)c1cccc2ccccc12	> 100	> 100	> 100	> 100	–	> 100	> 100	–	> 100	> 100	> 100	> 100	–	–	–	–	–	–	–
O=c1cc(-c2ccccc2)[nH]c2c(F)ccc(F)c12	> 100	> 100	> 100	> 100	> 100	> 100	–	> 100	> 100	> 100	–	–	–	–	–	–	–	–	–
COc1ccc(C2CCc3c(cnc4nc(N)nc(N)c34)C2)cc1 (stereo not drawn)	> 100	51	> 100	> 100	36	12.3	> 100	> 100	–	> 100	> 100	> 100	–	–	–	–	–	–	–
Cc1nc2ccccc2nc1N1CCCC1	> 100	> 100	–	> 100	> 100	> 100	> 100	> 100	–	> 100	> 100	> 100	–	–	–	–	–	–	–
C[C@@H]1CC(=O)[C@@]2(C)[C@](O)(CCC3O[C@]32C)[C@@]12CC(c1ccoc1)OC2=O (stereo partly drawn)	–	> 100	58.5	> 100	> 100	–	> 100	> 100	59.8	> 100	> 100	> 100	–	–	–	–	–	–	–
COc1ccc(Cn2nc(OCc3ccccc3)c3cc([N+](=O)[O-])ccc32)cc1	> 100	> 100	> 100	> 100	> 100	–	–	> 100	> 100	–	> 100	–	–	–	–	–	–	–	–
Cc1nc2cccc(F)c2c(=O)n1-c1nnc(C2CC2)s1	> 10	> 10	> 10	> 10	> 10	> 10	> 10	> 10	> 10	> 10	> 10	–	–	–	–	–	–	–	–
O=C(OCC(OC(=O)c1ccccc1)C1CC(C(O)C2CCCCC2)C(=O)O1)c1ccccc1 (stereo not drawn)	> 100	> 100	47.9	–	> 100	> 100	> 100	> 100	52.8	> 100	> 100	> 100	–	–	–	–	–	–	–
Oc1[nH]c2ccccc2c1N=NC(=S)NCc1ccccn1	14.5	2.25	4.9	13.7	18.3	18.1	12.5	2.6	–	21	> 23.3	17.5	–	–	–	–	–	–	–
COc1ccc(-c2nc3ncccn3c2-c2ccc(S(C)(=O)=O)cc2)cc1	> 100	> 100	> 100	> 100	–	> 100	–	> 100	> 100	> 100	> 100	> 100	–	–	–	–	–	–	–
CCOC(=O)C1=C(C)N(c2ccc(Cl)cc2)C2(O)C=CC(=O)C3C(=O)N(c4ccccc4)C(=O)C132 (stereo not drawn)	5.28	3.07	3.72	10.5	3.49	1.96	4.38	3.63	–	3.25	6.72	5.8	–	–	–	–	–	–	–
c1ccc(C2C3=C(CCCC3)Nc3nnnn32)cc1 (stereo not drawn)	> 100	> 100	> 100	> 100	–	–	–	> 100	–	–	> 100	98.4	–	–	–	–	–	–	–
Cc1cc(=O)oc2c(CN(CCCl)CCCl)c(O)ccc12	> 100	> 100	98.8	> 100	–	> 100	> 100	71.2	31.7	> 100	> 100	78.5	–	–	–	–	–	–	–
